Entries after “also recorded” stand apart in the source; their conditions may differ.

The test system of assay [1] is trauma-induced heterotopic ossification. As to the kind of experiment: Trauma-potentiated (drop-weight) heterotopic ossification model. Format: in vivo. Conditions: WT mice; after three weeks; Tfr2-ECD single dose, palovarotene or ibuprofen daily. The method, then: For systemic Tfr2-ECD treatment, WT mice were treated every other day with Tfr2-ECD intraperitoneally for two weeks. Mice received 250 μg Tfr2-ECD (10 mg/kg BW) per injection for the first 10 days after BMP-2/matrigel injection into the muscle and 125 μg per injection (5 mg/kg BW) for the remaining time. This experiment was performed once with 8-10 mice per group. Drop-weight HO: This experiment was performed according to Liu et al. with minor modifications^65. Female 10-12-week-old WT mice were anesthetized and placed on a ridge of a plastic container over which the right leg was bent so the femur was lying horizontally. Mice received an injection of 1 μg BMP-2 mixed in 50 μl matrigel. Afterwards, a stainless-steel ball of 16 g (16 mm diameter) was dropped from a distance of 80 cm height onto the quadriceps muscle. Mice either received a single dose of 1 μg Tfr2-ECD, which was co-injected with the BMP-2/matrigel mixture, or palovarotene (Hycultec), which was administered daily by oral gavage. Palovarotene was dissolved in DMSO and diluted 1:4 with corn oil. Mice received palovarotene at a dose of 100 μg/mouse for the first five days and 50 μg/mouse for the remainder of the experiment (days 621). One group of mice received ibuprofen via the drinking water at a dose of […] which was changed every other day^66. […]

In assay [2] the test system is BMP-2-induced heterotopic ossification. As to the kind of experiment: BMP-2-induced heterotopic ossification (HO) mouse model. The class given is in vivo, mice. The settings on record: WT mice; day 8; systemic treatment; Safranin O staining. The method, then:
Male and female C57BL/6 mice are used for the HO model. The HO is triggered by injecting BMP-2 into the muscle (Wosczyna et al. 2012).
All the mice are fed with standard feed and water ad libitum and are kept in groups of five mice per cage. The mice are exposed to a 12-hour light/dark cycle and air cooling to 23° C. (no special pathogen-free room). Enrichment is provided in the form of cardboard houses and bedding material. The mice are randomly divided into the different treatment groups and the assays are subsequently carried out as blind experiments.
The HO is examined by means of treatment using 2.5 μl of a 1 mg/ml recombinant BMP-2 solution (Thermo Fisher Scientific) or 2.5 μl of a 1 mg/ml Tfr2-ECD mixed with 47.5 μl Matrigel (BD Bioscience) at 0° C. For combination treatment, 2.5 of a 1 mg/ml recombinant BMP-2 solution is mixed with 2.5 μl of a 1 mg/ml Tfr2-ECD and 45 μl Matrigel. The Matrigel mixtures are injected into the musculus tibialis anterior of 10-week-old female wild-type mice. The legs are examined after two weeks.
The bone microarchitecture is analyzed using vivaCT40 (Scanco Medical, Switzerland). The entire lower leg bones are measured at a resolution of 10.5 μm using X-rays of 70 kVp, […] and at an integration time of 200 s. Predefined scripts from Scanco are used to analyze the bone (#1). […]

The target in a further assay is T1, Tfr2-ECD (Mus musculus, UniProt Q9JKX3).
T1 construct: full-length extracellular domain (ECD, aa 103-798) of murine Tfr2; His (N); MBP (N); c3 (protease site between MBP and ECD) (N); made in house; host or cells: Sf9 insect cells (baculovirus, pOCC211-Tfr2-ECD)
T1 sequence (Q9JKX3 103-798): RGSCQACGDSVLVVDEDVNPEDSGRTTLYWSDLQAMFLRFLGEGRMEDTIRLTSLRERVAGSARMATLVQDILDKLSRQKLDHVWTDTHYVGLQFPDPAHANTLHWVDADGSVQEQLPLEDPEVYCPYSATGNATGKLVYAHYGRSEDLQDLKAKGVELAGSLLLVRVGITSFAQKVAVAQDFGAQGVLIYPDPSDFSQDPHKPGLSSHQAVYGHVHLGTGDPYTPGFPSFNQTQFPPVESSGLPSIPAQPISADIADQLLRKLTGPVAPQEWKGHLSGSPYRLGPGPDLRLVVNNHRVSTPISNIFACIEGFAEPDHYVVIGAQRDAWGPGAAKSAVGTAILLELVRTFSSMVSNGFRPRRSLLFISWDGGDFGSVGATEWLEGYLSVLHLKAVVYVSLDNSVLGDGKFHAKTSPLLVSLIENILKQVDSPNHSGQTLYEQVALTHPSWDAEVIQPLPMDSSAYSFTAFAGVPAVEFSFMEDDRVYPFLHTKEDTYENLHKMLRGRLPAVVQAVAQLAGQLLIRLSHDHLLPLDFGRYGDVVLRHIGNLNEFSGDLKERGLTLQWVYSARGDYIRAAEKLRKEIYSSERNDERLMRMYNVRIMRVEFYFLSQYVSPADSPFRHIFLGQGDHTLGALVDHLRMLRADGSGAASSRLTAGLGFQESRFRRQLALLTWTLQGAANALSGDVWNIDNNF
As to the kind of experiment: SPR binding of holo-Tf and BMP receptors to Tfr2-ECD immobilized on the sensor chip. Also noted: species or system murine. Conditions: 200 nM BMP receptors; binding level normalized to molecular weight. The method, then:
For this purpose, Tfr2-ECD is immobilized on a Series S Sensor Chip C1 (GE Healthcare), by means of coupling the amino groups at 25° C. The carboxyl groups on the chip surface are activated for 7 minutes using a mixture of 196 mM 1-ethyl-3-(3-dimethylaminopropyl) carbodiimide-hydrochloride and 50 mM n-hydroxysuccinimide at a flow rate of 10 μl/min. Subsequently, 5 μg/ml Tfr2-ECD, diluted with sodium acetate buffer (pH 4.5), is injected at a flow rate of 5 μl/min up to a relative occupancy of 200 RU. Non-reacted groups are inactivated by injecting 1 M thanolamine-HCl (pH 8.5) for 7 minutes at a flow rate of 10 μl/min. In order to prepare a reference surface, the same procedure is carried out but without Tfr2-ECD being injected.
The binding assays are carried out at 37° C. at a flow rate of 30 μl/min. Each analyte is diluted by a running buffer (HBS-P, pH 7.4 together with 50 nM FeCl3). […] The values of the binding level are read out, relative to the baseline, 10 s before the end of the injection and are corrected with respect to the molar mass. […] The binding parameters are determined using the Biacore™ T100 evaluation software 2.03. […]
For binding analysis, an injection of analyte for 240 s or 300 s over a Tfr2-ECD surface was followed by 1000 s dissociation. The values of the binding levels were recorded from referenced signals 10 s before the end of injection relative to baseline response. […]

Consider `CC(C)Cc1ccc(C(C)C(=O)O)cc1` (centres unmarked) [ibuprofen], for which, in assay [1], the “New bone formation in the muscle (trauma-induced HO, μCT)” value is listed as “did not prevent; also recorded: did not significantly reduce”.
For `CC1(C)CCC(C)(C)c2cc(Cn3cccn3)c(/C=C/c3ccc(C(=O)O)cc3)cc21` [palovarotene, reference compound], in assay [2], the “Number of chondrocytes (chondrogenic phase of HO)” value is “suppressed” and the “Production of cartilage (chondrogenic phase of HO)” value is recorded as “suppressed”. In addition, in assay [1], the “New bone formation in the muscle (trauma-induced HO, μCT)” value is listed as “comparable”.
As for “BMPR-IA: BMP receptor type IA (R&D Systems), positive control in the BMP-2 ELISA”, the “Binding response of BMPRs to Tfr2-ECD compared with BMPs” value in the assay with Tfr2-ECD is given as “weaker than BMPs”.

The values are drawn from patent US20240199755A1, “ANTAGONISTS AND AGONISTS OF THE TRANSFERRIN RECEPTOR-2 FOR USE IN THE TREATMENT OF DISEASES OF THE BONE” (Kymab Limited, priority 2018, published 2024).
